Results as given in the NIST ThermoML archive (doi:10.1016/j.jct.2018.11.014).

Assay: molar heat capacity at constant pressure
Details: 101.33 kPa, Crystal, Vacuum adiabatic calorimetry

O=C(CO)[C@H](O)[C@H](O)[C@H](O)CO [D-psicose]
Details | molar heat capacity at constant pressure [J/K/mol]
123.06 K | 95.25
123.75 K | 95.92
124.29 K | 96.23
124.5 K | 96.3
125.14 K | 96.92
125.8 K | 97.36
125.92 K | 97.34
126.54 K | 97.93
127.3 K | 98.49
127.33 K | 98.38
127.93 K | 98.98
128.73 K | 99.42
128.78 K | 99.54
129.31 K | 99.93
130 K | 100.42
130.16 K | 100.47
130.29 K | 100.63
130.71 K | 100.99
131.62 K | 101.53
131.84 K | 101.76
132.14 K | 102.08
133.07 K | 102.57
133.37 K | 102.87
133.59 K | 103.04
134.51 K | 103.62
134.89 K | 103.97
135.06 K | 104.17
135.94 K | 104.68
136.44 K | 105.12
136.51 K | 105.24
137.4 K | 105.69
137.99 K | 106.23
138.07 K | 106.25
138.89 K | 106.78
139.5 K | 107.37
139.73 K | 107.46
140 K | 107.65
140.36 K | 107.86
141 K | 108.43
141.38 K | 108.63
141.83 K | 108.94
142.49 K | 109.66
143.02 K | 109.81
143.29 K | 109.97
143.97 K | 110.56
144.64 K | 111.02
144.78 K | 111.03
145.47 K | 111.62
146.29 K | 112.11
146.3 K | 112.15
147.05 K | 112.77
147.84 K | 113.18
147.99 K | 113.34
148.65 K | 113.9
149.42 K | 114.29
149.66 K | 114.52
150 K | 114.81
150.25 K | 115.05
150.99 K | 115.45
151.33 K | 115.73
151.83 K | 116.23
152.59 K | 116.62
152.98 K | 116.92
153.45 K | 117.32
154.22 K | 117.72
154.66 K | 118.11
155.09 K | 118.5
155.87 K | 118.94
156.38 K | 119.3
156.72 K | 119.64
157.54 K | 120.08
158.08 K | 120.68
158.34 K | 120.83
159.19 K | 121.26
159.8 K | 121.76
159.95 K | 121.9
160 K | 121.93
160.88 K | 122.45
161.55 K | 122.94
161.59 K | 123.12
162.65 K | 123.73
163.25 K | 124.33
163.33 K | 124.2
164.46 K | 125
164.91 K | 125.57
165.14 K | 125.56
166.25 K | 126.31
166.6 K | 126.8
166.94 K | 126.82
168.04 K | 127.62
168.33 K | 127.92
168.72 K | 128.08
169.85 K | 128.88
170 K | 129.01
170.09 K | 129.15
170.5 K | 129.38
171.7 K | 130.21
171.88 K | 130.42
172.31 K | 130.62
173.54 K | 131.46
173.65 K | 131.69
174.14 K | 131.92
175.36 K | 132.69
175.42 K | 132.94
175.97 K | 133.17
177.18 K | 134.01
177.23 K | 134.2
177.78 K | 134.49
179.06 K | 135.42
179.11 K | 135.51
179.59 K | 135.75
180 K | 136.08
181.01 K | 136.76
181.03 K | 136.92
181.46 K | 137.08
182.93 K | 138.2
182.95 K | 138.09
183.4 K | 138.47
184.83 K | 139.53
184.88 K | 139.49
185.32 K | 139.84
186.71 K | 140.84
186.79 K | 140.88
187.28 K | 141.21
188.62 K | 142.21
188.74 K | 142.23
189.26 K | 142.58
190 K | 143.15
190.56 K | 143.63
190.71 K | 143.67
191.28 K | 144.05
192.49 K | 144.97
192.68 K | 145.06
193.32 K | 145.45
194.41 K | 146.37
194.63 K | 146.4
195.35 K | 146.92
196.32 K | 147.62
196.58 K | 147.65
197.38 K | 148.33
198.25 K | 149.1
198.55 K | 149.16
199.39 K | 149.76
200 K | 150.21
200.22 K | 150.43
200.55 K | 150.56
201.43 K | 151.19
202.17 K | 151.83
202.58 K | 152.06
203.5 K | 152.67
204.12 K | 153.18
204.65 K | 153.53
205.56 K | 154.09
206.7 K | 154.98
207.61 K | 155.56
208.78 K | 156.4
209.65 K | 157.04
210 K | 157.3
210.89 K | 157.92
211.72 K | 158.49
212.99 K | 159.44
213.81 K | 160.01
215.07 K | 160.9
215.9 K | 161.43
217.15 K | 162.36
217.98 K | 163.06
219.31 K | 163.88
220 K | 164.4
220.04 K | 164.46
221.53 K | 165.48
222.21 K | 165.84
223.74 K | 167.09
224.47 K | 167.6
225.94 K | 168.64
226.71 K | 169.21
228.14 K | 170.2
228.95 K | 170.75
230 K | 171.54
230.36 K | 171.83
231.25 K | 172.46
232.61 K | 173.46
233.65 K | 174.15
234.87 K | 174.98
236.07 K | 175.9
237.14 K | 176.72
238.49 K | 177.45
239.4 K | 178.38
240 K | 178.72
240.95 K | 179.37
241.69 K | 179.82
243.45 K | 181.14
244.01 K | 181.62
245.99 K | 183.07
246.32 K | 183.25
248.54 K | 184.87
248.61 K | 184.95
250 K | 185.94
250.9 K | 186.65
251.09 K | 186.81
253.21 K | 188.45
253.63 K | 188.66
255.55 K | 189.85
256.15 K | 190.4
257.88 K | 191.75
258.7 K | 192.25
260 K | 193.15
260.93 K | 193.78
263.32 K | 195.6
265.71 K | 197.22
268.09 K | 199.02
270 K | 200.36
270.5 K | 200.87
272.99 K | 202.45
275.52 K | 204.17
278.04 K | 206.05
280 K | 207.59
280.55 K | 207.87
281.85 K | 208.9
282.34 K | 209.34
283.14 K | 209.63
284.44 K | 210.76
284.81 K | 211
285.82 K | 211.74
287.07 K | 212.81
287.31 K | 212.9
288.48 K | 213.7
289.68 K | 214.75
289.9 K | 214.79
290 K | 214.85
291.13 K | 215.63
292.28 K | 216.49
292.52 K | 216.73
293.77 K | 217.6
294.87 K | 218.44
295.13 K | 218.64
296.44 K | 219.94
297.49 K | 220.33
298.15 K | 220.79
299.14 K | 221.01
300 K | 222.14
300.13 K | 222.34
301.82 K | 223.5
302.77 K | 224.25
304.49 K | 225.49
305.39 K | 226.09
307.15 K | 227.47
308 K | 228.01
309.84 K | 229.4
310 K | 229.48
310.63 K | 229.95
312.56 K | 231.38
313.29 K | 231.87
315.26 K | 233.4
315.94 K | 233.92
318.01 K | 235.4
318.58 K | 235.78
320 K | 236.88
320.81 K | 237.33
321.2 K | 237.81
323.64 K | 239.66
323.85 K | 239.71
326.49 K | 241.59
326.53 K | 241.79
329.19 K | 243.75
329.33 K | 243.86
330 K | 244.34
